PubChem BioAssay AID330 (DTP/NCI, 2004)
Several values for one entry are separate records, joined by “and”; a condition that tells them apart may be missing. Identical values can stand only once. Toxic doses and inconclusive results are not listed. The calls were made as follows: active = survival T/C of 150% or more; inactive = T/C below 125% in these data.

Test system: P388 leukemia ip, CD2F1 mice, survival T/C
Assay: NCI In Vivo Anticancer Drug Screen. Data for tumor model P388 Leukemia (intraperitoneal) in CD2F1 (CDF1) mice
Settings: endpoint: median survival time, higher = longer survival
Procedure, shortened: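 Mice carrying the transplanted tumor received test compound or vehicle. Survival was recorded in each group, and the value is the treated-group measurement divided by that of the vehicle-treated control group.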

[1] = dose: 50.0 mg/kg/injection, schedule: Q01DX009 (ip), vehicle: saline with Tween-80
[2] = dose: 100.0 mg/kg/injection, schedule: Q01DX009 (ip), vehicle: saline with Tween-80
[3] = dose: 200.0 mg/kg/injection, schedule: Q01DX009 (ip), vehicle: saline with Tween-80
[4] = dose: 50.0 mg/kg/injection, schedule: Q01DX005 (ip), vehicle: Klucel (hydroxypropylcellulose) (HPC)
[5] = dose: 100.0 mg/kg/injection, schedule: Q01DX005 (ip), vehicle: Klucel (hydroxypropylcellulose) (HPC)
[6] = dose: 200.0 mg/kg/injection, schedule: Q01DX005 (ip), vehicle: Klucel (hydroxypropylcellulose) (HPC)
[7] = dose: 50.0 mg/kg/injection, schedule: Q01DX005 (ip), vehicle: saline with Tween-80
[8] = dose: 100.0 mg/kg/injection, schedule: Q01DX005 (ip), vehicle: saline with Tween-80
[9] = dose: 60.0 mg/kg/injection, schedule: Q01DX005 (ip), vehicle: saline
[10] = dose: 120.0 mg/kg/injection, schedule: Q01DX005 (ip), vehicle: saline
[11] = dose: 200.0 mg/kg/injection, schedule: Q01DX005 (ip), vehicle: saline with Tween-80
[12] = dose: 3.12 mg/kg/injection, schedule: Q01DX005 (ip), vehicle: Klucel (hydroxypropylcellulose) (HPC)
[13] = dose: 6.25 mg/kg/injection, schedule: Q01DX005 (ip), vehicle: Klucel (hydroxypropylcellulose) (HPC)
[14] = dose: 12.5 mg/kg/injection, schedule: Q01DX005 (ip), vehicle: Klucel (hydroxypropylcellulose) (HPC)
[15] = dose: 25.0 mg/kg/injection, schedule: Q01DX005 (ip), vehicle: Klucel (hydroxypropylcellulose) (HPC)
[16] = dose: 12.5 mg/kg/injection, schedule: Q01DX009 (ip), vehicle: saline with Tween-80
[17] = dose: 25.0 mg/kg/injection, schedule: Q01DX009 (ip), vehicle: saline with Tween-80

Measured: T/C

Cc1nc2c(c(-c3ccccc3)n1)Cc1c(ccc3ccccc13)O2
inactive: [1] 96 % of control | [2] 102 % of control | [3] 99 % of control | dose: 400.0 mg/kg/injection, schedule: Q01DX009 (ip), vehicle: saline with Tween-80 92 % of control

CC(C)(C)OC(=O)CN1C(=O)CCC1=O
inactive: [4] 99 % of control | [5] 100 % of control | [6] 106 % of control

CN(C)CCC(=O)C(=C/C=C/c1ccccc1)C(=O)CCN(C)C
inactive: dose: 25.0 mg/kg/injection, schedule: Q01DX005 (ip), vehicle: saline with Tween-80 100 % of control | [7] 121 % of control | [8] 123 % of control

Cc1nc(SCC(=O)O)n[nH]1
inactive: [1] 103 % of control | [2] 103 % of control | [3] 101 % of control

C[N+]1(C)C2CCC1CC(=O)C2
inactive: dose: 12.5 mg/kg/injection, schedule: Q01DX009 (ip), vehicle: suspension in saline 107 % of control | dose: 25.0 mg/kg/injection, schedule: Q01DX009 (ip), vehicle: suspension in saline 107 % of control

COCC1CCOC(C(C)C)O1 (stereo not given)
inactive: [9] 101 % of control | [10] 100 % of control | dose: 240.0 mg/kg/injection, schedule: Q01DX005 (ip), vehicle: saline 100 % of control

Cn1c(=O)c2c(-c3ccccc3)cc(-c3ccccc3)nc2n(C)c1=O
inactive: dose: 100.0 mg/kg/injection, schedule: Q04DX002 (ip), vehicle: saline with Tween-80 97 % of control | dose: 200.0 mg/kg/injection, schedule: Q04DX002 (ip), vehicle: saline with Tween-80 100 % of control | dose: 400.0 mg/kg/injection, schedule: Q04DX002 (ip), vehicle: saline with Tween-80 101 % of control

Cc1c(O)cnc2nn(-c3ccccc3)c(=N)n12
inactive: dose: 60.0 mg/kg/injection, schedule: Q01DX005 (ip), vehicle: saline with Tween-80 91 % of control | dose: 120.0 mg/kg/injection, schedule: Q01DX005 (ip), vehicle: saline with Tween-80 92 % of control | dose: 240.0 mg/kg/injection, schedule: Q01DX005 (ip), vehicle: saline with Tween-80 90 % of control

O=C(NCCCNC(=O)C12CC3CC(CC(C3)C1)C2)C12CC3CC(CC(C3)C1)C2
inactive: [7] 98 % of control | [8] 92 % of control | [11] 100 % of control

CCOc1c(N=Nc2ccc(Cl)cc2Cl)c(C)nn1C(=S)SC
inactive: dose: 60.0 mg/kg/injection, schedule: Q01DX005 (ip), vehicle: Klucel + Tween-80 103 % of control | dose: 120.0 mg/kg/injection, schedule: Q01DX005 (ip), vehicle: Klucel + Tween-80 107 % of control

CCOC(=O)c1ccc(NN=NCCOC)cc1
inactive: dose: 12.5 mg/kg/injection, schedule: Q01DX009 (ip), vehicle: distilled water + Tween-80 102 % of control | dose: 25.0 mg/kg/injection, schedule: Q01DX009 (ip), vehicle: distilled water + Tween-80 101 % of control and 105 % of control | dose: 50.0 mg/kg/injection, schedule: Q01DX009 (ip), vehicle: distilled water + Tween-80 122 % of control and 123 % of control

NS(=O)(=O)/C(Br)=C/c1ccccc1
inactive: [1] 90 % of control | [2] 118 % of control | [3] 98 % of control

C=C(Cl)C(=NC(C)(C)C)Nc1ccccc1C
inactive: dose: 1.56 mg/kg/injection, schedule: Q01DX005 (ip), vehicle: saline 100 % of control | [12] 103 % of control | dose: 3.12 mg/kg/injection, schedule: Q01DX005 (ip), vehicle: saline 102 % of control | [13] 107 % of control and 117 % of control | dose: 6.25 mg/kg/injection, schedule: Q01DX005 (ip), vehicle: saline 109 % of control and 118 % of control | [14] 117 % of control | dose: 12.5 mg/kg/injection, schedule: Q01DX005 (ip), vehicle: saline 108 % of control | [15] 121 % of control

C=C(C)C(=O)OC1CCC2Cc3occ(C)c3C(OC(=O)C=C(C)C)C2(C)C1C (stereo not given)
inactive: dose: 10.0 mg/kg/injection, schedule: Q01DX009 (ip), vehicle: saline with Tween-80 103 % of control | dose: 20.0 mg/kg/injection, schedule: Q01DX009 (ip), vehicle: saline with Tween-80 101 % of control | dose: 40.0 mg/kg/injection, schedule: Q01DX009 (ip), vehicle: saline with Tween-80 100 % of control | dose: 80.0 mg/kg/injection, schedule: Q01DX009 (ip), vehicle: saline with Tween-80 98 % of control

c1ccc2sc(NC(Nc3nc4ccccc4s3)C34CC5CC(CC(C5)C3)C4)nc2c1
inactive: [16] 98 % of control | [17] 98 % of control | [1] 91 % of control and 96 % of control

CC(=O)OCC1OC(N(O)Cc2ccccc2)C(OC(C)=O)C(OC(C)=O)C1OC(C)=O (stereo not given)
inactive: [4] 100 % of control | [5] 95 % of control | [6] 86 % of control

N#CC(COC(=O)c1ccccc1)OC(=O)c1ccccc1 (stereo not given)
inactive: [7] 91 % of control | [8] 95 % of control | [11] 86 % of control

CSc1nc(C)c(Br)c(N2CC2)n1
inactive: [12] 89 % of control | [13] 110 % of control and 94 % of control | [14] 99 % of control and 110 % of control | [15] 120 % of control and 89 % of control and 97 % of control | [4] 101 % of control and 102 % of control | [5] 105 % of control

COc1cc2c(cc1OC)[C@H]1[C@@H](CO)c3ccc4c(c3CN1CC2)OCO4
inactive: [4] 109 % of control | [5] 92 % of control | [6] 92 % of control

CN(C)N=Nc1ccc(N(C)C)cc1
inactive: dose: 0.39 mg/kg/injection, schedule: Q01DX009 (ip), vehicle: Klucel (hydroxypropylcellulose) (HPC) 121 % of control | dose: 0.78 mg/kg/injection, schedule: Q01DX009 (ip), vehicle: Klucel (hydroxypropylcellulose) (HPC) 113 % of control and 114 % of control | dose: 1.56 mg/kg/injection, schedule: Q01DX009 (ip), vehicle: Klucel (hydroxypropylcellulose) (HPC) 113 % of control and 120 % of control | dose: 3.13 mg/kg/injection, schedule: Q01DX009 (ip), vehicle: Klucel (hydroxypropylcellulose) (HPC) 103 % of control and 118 % of control

CC1(C)SC(=O)C(=O)S1
inactive: dose: 100.0 mg/kg/injection, schedule: Q04DX003 (ip), vehicle: saline 103 % of control | dose: 200.0 mg/kg/injection, schedule: Q04DX003 (ip), vehicle: saline 93 % of control

CCOC(=O)C/C(=N\Nc1ccc([N+](=O)[O-])cc1[N+](=O)[O-])c1ccccc1
inactive: dose: 100.0 mg/kg/injection, schedule: Q01DX001 (ip), vehicle: saline with Tween-80 100 % of control | dose: 200.0 mg/kg/injection, schedule: Q01DX001 (ip), vehicle: saline with Tween-80 100 % of control | dose: 400.0 mg/kg/injection, schedule: Q01DX001 (ip), vehicle: saline with Tween-80 100 % of control

C=C(C)CSc1ncnc2nc[nH]c12
inactive: dose: 100.0 mg/kg/injection, schedule: Q04DX003 (ip), vehicle: saline with Tween-80 104 % of control | dose: 200.0 mg/kg/injection, schedule: Q04DX003 (ip), vehicle: saline with Tween-80 100 % of control | dose: 400.0 mg/kg/injection, schedule: Q04DX003 (ip), vehicle: saline with Tween-80 100 % of control

CCN(CC)C(=O)CC(c1ccccc1)N(C)C (stereo not given)
inactive: [9] 98 % of control | [10] 87 % of control

Cc1nc2ccccc2c(=O)n1/N=C1/C(=O)Nc2ccccc21
inactive: [15] 90 % of control | [4] 90 % of control | [5] 88 % of control | [6] 103 % of control

Cc1nc(=O)oc(NC(C)C)c1Cl
inactive: [17] 100 % of control and 107 % of control | [1] 106 % of control and 95 % of control | dose: 50.0 mg/kg/injection, schedule: Q01DX009 (ip), vehicle: saline 110 % of control | [2] 113 % of control and 97 % of control | dose: 100.0 mg/kg/injection, schedule: Q01DX009 (ip), vehicle: saline 103 % of control | [3] 99 % of control and 116 % of control

COc1cccc(/C=N/NC(=O)C2CCN(C(=S)NC3CC4C=CC3C4)CC2)c1O (stereo not given)
inactive: [16] 101 % of control | [1] 99 % of control and 97 % of control | [2] 103 % of control | [3] 103 % of control

Nc1nc(N)c(N=O)c(Nc2cccc(Br)c2)n1
inactive: [16] 99 % of control | [17] 99 % of control | [1] 90 % of control | [2] 91 % of control

N=C(N)c1ccc(C#Cc2ccc(C(=N)N)cc2)cc1
inactive: dose: 3.13 mg/kg/injection, schedule: Q01DX009 (ip), vehicle: saline with Tween-80 94 % of control | dose: 6.25 mg/kg/injection, schedule: Q01DX009 (ip), vehicle: saline with Tween-80 92 % of control | [16] 95 % of control
